In US7317002B2, “Site-specific preparation of polyethylene glycol-GRF conjugates” (Applied Research Systems ARS Holding N.V., priority 1997, dated 2008):
No end group written: not given here.

How the values were obtained:
[1] = test system: GH serum levels; assay: In vivo assay: serum GH levels after i.v. injection in male rats; parameters: species or system Sprague-Dawley rats; details: for GH serum levels induced, compared with hGRF1-29: 400 μg i.v., rats, DMSO preparations, FIG. 11A
Protocol: (§1) SPF adult male Sprague-Dawley rats, 200-250 g b.w, supplied by Charles River, are used after an acclimatisation period of at least 7 days.
(§2) The animal was injected i.v. with hGRF(1-29) (400 μg/rat). A few minutes before blood collection, the animal was anaesthetized (ketamine-xylazine). […] The sample was divided into two aliquots: 1 ml was collected as such and serum was obtained after an incubation period of about 3 hours at 37° C. and subsequent centrifugation; the remaining 1 ml was collected into a vial containing 50 μl of a 4 mg/ml heparin solution, immediately stored on ice and plasma was obtained after centrifugation at 4° C.
(§3) Blood samples were collected at different time points from the injection of the test compound using different animals. In each experimental session a total of three rats for each time point was used.
(§4) Plasma and serum samples were immediately frozen and stored at −20° C.
(§5) GH serum levels were measured by a commercial RIA kit; hGRF plasma levels were measured by a commercial RIA kit for hGRF(1-44).

[2] = test system: rat pituitary cell; assay: In vitro rat pituitary cell bioassay (GH release); type: cell-based; details: two DMSO preparations; FIGS. 8 and 9
Protocol: In vitro rat pituitary cell bioassay for hGRF(1-29)
The animals (SPF male Sprague-Dawley rats 200 g, b.w.) were sacrificed by CO2 inhalation and the pituitaries removed. The tissue was finely minced and put into a bottle with the enzyme solution for tissue digestion. The bottle was placed in an incubator at 37° C. for 1 hour.
The digested tissue was recovered and the cells washed twice, counted and adjusted to a concentration of 5×10^5/ml. The cells were plated out in a 48-well plate (200 μl/well) and the plate placed in an incubator for 72 hrs.
After 72 hrs the cells were incubated with different concentrations of hGRF for 4 hours. At the end of the incubation period the supernatants were collected and stored at −80° C.
The GH content in each sample was assayed by a commercial rat GH radioimmunoassay kit.

[3] = biological target: T1, human growth hormone releasing factor receptor (hGRF-R) (Homo sapiens, UniProt Q02643); assay: CHO-hGRFR-LUC in vitro assay (luciferase reporter gene assay); type: cell-based; details: DMSO and nicotinamide preparations; FIGS. 5-7
T1 construct: expressed in transfected cells; host or cells: CHO-DUKX (clone CHO-hGRFR-LUC 1-11-20)
T1 sequence (Q02643 23-423): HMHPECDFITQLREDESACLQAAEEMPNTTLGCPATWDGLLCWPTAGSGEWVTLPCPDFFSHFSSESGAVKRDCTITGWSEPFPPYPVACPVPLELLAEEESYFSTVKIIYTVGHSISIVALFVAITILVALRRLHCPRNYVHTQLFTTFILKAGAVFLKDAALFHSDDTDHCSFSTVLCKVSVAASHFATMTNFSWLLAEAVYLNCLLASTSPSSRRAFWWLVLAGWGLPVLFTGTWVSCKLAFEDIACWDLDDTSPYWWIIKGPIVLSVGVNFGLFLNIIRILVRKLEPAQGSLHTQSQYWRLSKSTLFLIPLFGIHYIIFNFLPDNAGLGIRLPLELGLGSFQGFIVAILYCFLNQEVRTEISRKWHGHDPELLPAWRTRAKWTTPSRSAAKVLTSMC
Text: CHO-hGRFR-LUC in Vitro Assay
CHO-hGRFR-LUC (clone 1-11-20) is a cloned cell line that had been obtained by cotransfection of the pcDNA3-hGRF-R and pTF5-53 LUC vectors into CHO-DUKX cell line.
The plasmid pcDNA3-hGRF-R was constructed by inserting the human growth hormone releasing factor receptor (hGRF-R) cDNA into pcDNA3 expression vector. The Bluescript plasmid containing hGRF-R cDNA was kindly provided by Dr. B. Gaylinn (University of Virginia) the pcDNA3 mammalian expression vector was obtained from Invitrogen. The hGRF-R coding sequence was driven by the human cytomegalovirus (CMV) promoter.
The plasmid pTF5-53LUC was constructed by inserting the c-fos cAMP response element along with its endogenous promoter upstream of the luciferase coding sequence in plasmid poLuc. The cAMP response element and the c-fos promoter were obtained from the plasmid pTF5-53 (described in Fish et al, 1989). The promoterless reporter gene vector (poLuc) with multiple cloning sites upstream of the luciferase coding sequence was obtained from Dr. Brasier (University of Texas, Galveston).
These CHO-DUKX cells obtained by the above co-transfection were routinely grown in MEM alpha medium containing ribonucleosides and deoxyribonucleosides and supplemented with 10% fetal calf serum plus 600 μg/ml geneticin G418 sulfate.
The cells were seeded (40,000 cells/well) in white 96-well plates (Dynatech) and incubated for 16-18 hrs in 200 μl growth medium before the assay.
The next day, the medium was removed and replaced with a medium containing different concentrations of hGRF(1-29) in-house reference standard (Bachem) or different hGRF-PEG conjugates before incubating the plates at 37° C., 5% CO2 for two hours. At the end of incubation, CHO-hGRFR-LUC cells were washed twice with 200 μl of PBS (Sigma) and then lysed by adding 50 μl of a cell culture lyses reagent (Promega) to each well. After a further 15-minute incubation at room temperature, the plates were read in a luminometer (Dynatech) after introducing 150 μl of a luciferase assay reagent (Promega).
As an alternative method, CHO-hGRFR-LUC cells, seeded at 50,000 cells/well, at the end of incubation with different hGRF-PEG conjugates, were washed with PBS, as above discussed. To each well 100 μl PBS containing calcium and magnesium ions was added, prior to addition of 100 μl of Luclite (Packard). After 10 minutes incubation at room temperature, plates were read in luminometer (Lumicount-Packard).
Results were expressed as relative light unit (RLU).

[4] = cited from earlier work
[5] = In vivo assay: plasma hGRF levels after i.v. injection in male rats; parameters: species or system Sprague-Dawley rats
Protocol: as §1, §2, §3, §4, §5

[6] = Solubility in aqueous buffer; type: physicochemical; details: water solution at neutral or slightly alkaline pH

Molecule | GH serum levels induced, compared with hGRF1-29 [1] | biological effect (activity) in the CHO-hGRFR-LUC in vitro assay [3] | further results
[Lys(MPEG5,000—CH2—CO—Nle—CO)^12,21-hGRF(1-29)—NH2] [GRF-2PEG] | comparable to those obtained with hGRF1-29 |  | 
N^α-(PEG5,000—CH2—CO—Nle—CO)[Lys(MPEG5,000—CH2—CO—Nle—CO)^12,21-hGRF(1-29)—NH2] [GRF-3PEG] | lower activity |  | GH release from rat pituitary cell in vitro (rank of activity) [2]: then GRF-3PEG
[Lys(MPEG5,000—CH2—CO—Nle—CO)^12-hGRF(1-29)—NH2] [GRF-1PEG 2nd peak] | comparable to those obtained with hGRF1-29 | more active than the GRF-2PEG and GRF-3PEG | 
GRF: peptide secreted by the hypothalamus which promotes the release of growth hormone; exists as 44-, 40-, or 37-amino acid peptide |  |  | biological half-life [4]: 12 to 30 minutes
CC[C@H](C)[C@H](NC(=O)[C@H](C)NC(=O)[C@H](CC(=O)O)NC(=O)[C@H](C)NC(=O)[C@@H](N)Cc1ccc(O)cc1)C(=O)N[C@@H](Cc1ccccc1)C(=O)N[C@H](C(=O)N[C@@H](CC(N)=O)C(=O)N[C@@H](CO)C(=O)N[C@@H](Cc1ccc(O)cc1)C(=O)N[C@@H](CCCNC(=N)N)C(=O)N[C@@H](CCCCN)C(=O)N[C@H](C(=O)N[C@@H](CC(C)C)C(=O)NCC(=O)N[C@@H](CCC(N)=O)C(=O)N[C@@H](CC(C)C)C(=O)N[C@@H](CO)C(=O)N[C@@H](C)C(=O)N[C@@H](CCCNC(=N)N)C(=O)N[C@@H](CCCCN)C(=O)N[C@@H](CC(C)C)C(=O)N[C@@H](CC(C)C)C(=O)N[C@@H](CCC(N)=O)C(=O)N[C@@H](CC(=O)O)C(=O)N[C@H](C(=O)N[C@@H](CCSC)C(=O)N[C@@H](CO)C(=O)N[C@@H](CCCNC(=N)N)C(N)=O)[C@@H](C)CC)C(C)C)[C@@H](C)O [hGRF, hGRF(1-29)—NH2, reference compound] |  | No difference | time at which serum GH returned to basal levels ([1]; 400 μg/rat i.v., male rats): 60 min; time of serum GH peak after i.v. injection ([1]; 400 μg/rat i.v., male rats): 10 min; plasma hGRF concentrations up to 60 min ([5]; 400 μg/rat i.v., male rats, FIG. 10): maintained a sustained level; Tmax ([5]; male, Sprague-Dawley, rat, in vivo, iv, 400 ug/animal): 10 min; solubility in neutral/alkaline buffer solution [6]: low solubility
hGRF(3-29) (DAIFTNSYRKVLGQLSARKLLQDIMSR; ends and bridges not checked; UniProt P01286 34-60, looked up, fragment) [Human GRF3-29, two preparations, supplied by Bachem and by ISL, reference compound] |  | did not possess a significant in vitro activity | 
[Lys(MPEG5,000—CH2—CO—Nle—CO)^21-hGRF(1-29)—NH2] [GRF-1PEG 1st peak] | comparable to those obtained with hGRF1-29 | more active than the GRF-2PEG and GRF-3PEG | GH release from rat pituitary cell in vitro (rank of activity) [2]: the most active compound
